Experiments:
EGFR WT = EGFR WT (Homo sapiens (Human), UniProt P00533); experiment: EGFR enzyme activity, IMAP assay; format: biochemical; conditions: 60 min pre-incubation; 2 μM ATP
Protocol: EGFR enzyme activity is measured using the IMAP (immobilized metal ion affinity-based fluorescence polarization) assay as outlined below.
EGFR enzyme (Invitrogen catalog #PR7295B), is diluted to 2.5 μg/mL in KR buffer (10 mM Tris-HCl, 10 mM MgCl2, 0.01% Tween-20, 0.1% NaN3, 1 mM DTT, 2 mM MnCl2, pH 7.5).
Final peptide substrate concentration in assay is 50 nM. […] Following incubation for 60 min at room temperature in the dark the enzyme reaction is stopped by adding 40 μL/well IMAP Progressive Binding Solution (according to suppliers (Molecular Devices) protocol using 20% 1× buffer A and 80% 1× buffer B with 600× diluted beads). After 60 min incubation at room temperature in the dark the FP signal is read. […] Values are calculated as percentage of the difference in readout (ΔmPi) of the controls with and without ATP. IC50 values are determined by curve fitting of the experimental results using GraphPad Prism6.

[1] = system: CD69 in CD19+ B cells of anti-IgM stimulated PBMCs; experiment: Human peripheral blood mononuclear cell (PBMC) CD69 assay; format: cell-based; conditions: 2 h compound, then anti-IgM 18 hours
Protocol: Example 44—Human Peripheral Blood Mononuclear Cell (PBMC) CD69 Assay
Whole blood was collected in heparin-coated Vacutainer tubes (BD Biosciences, San Jose, Calif.) and used for isolation of PBMCs using Ficoll-Hypaque (Pharmacia, Uppsala, Sweden). Isolated PBMCs were cryopreserved in 90% FCS/10% DMSO until later use.
Cells from cryogenic storage were thawed in a 37° C. water bath, diluted with RPMI/1% FCS, washed 2 times, and then plated at 1×10^5 cells per well in RPMI/10% FCS.
Serial dilutions log 10 from 10 mM to 316 nM of test compounds are made in 100% DMSO, followed by a 100-fold dilution into RPMI/1% FCS. For each well, 10 μL was then transferred to the deep well plate containing 90 μL of PBMC cells. Final compound concentration range in the assay ranged from 10 μM to 0.316 nM, with a final DMSO concentration of 0.1%. PBMCs are then incubated for 2 h at 37° C. in presence or absence of test compounds, prior to stimulation with goat F(ab′)2 anti-IgM (Southern Biotech, #2022-14, final concentration in assay 5 μg/mL) for 18 hours.
Following stimulation with anti-IgM, PBMCs were incubated on ice for 30 min with anti-CD69-FITC, anti-CD19-BV421 (BD Biosciences #555530 and #562440, respectively) and 7AAD (Life Technologies #A1310). Flow cytometry was performed and fluorescence values were obtained from the CD69-FITC channel in CD19+ gated life B cells. ECso values are determined by curve fitting of the experimental results using GraphPad Prism.

Bmx = Bmx (Homo sapiens (Human), UniProt P51813); experiment: BMX enzyme activity, IMAP assay; format: biochemical; conditions: 60 min pre-incubation; 5 μM ATP
Chain of Bmx (P51813 whole entry): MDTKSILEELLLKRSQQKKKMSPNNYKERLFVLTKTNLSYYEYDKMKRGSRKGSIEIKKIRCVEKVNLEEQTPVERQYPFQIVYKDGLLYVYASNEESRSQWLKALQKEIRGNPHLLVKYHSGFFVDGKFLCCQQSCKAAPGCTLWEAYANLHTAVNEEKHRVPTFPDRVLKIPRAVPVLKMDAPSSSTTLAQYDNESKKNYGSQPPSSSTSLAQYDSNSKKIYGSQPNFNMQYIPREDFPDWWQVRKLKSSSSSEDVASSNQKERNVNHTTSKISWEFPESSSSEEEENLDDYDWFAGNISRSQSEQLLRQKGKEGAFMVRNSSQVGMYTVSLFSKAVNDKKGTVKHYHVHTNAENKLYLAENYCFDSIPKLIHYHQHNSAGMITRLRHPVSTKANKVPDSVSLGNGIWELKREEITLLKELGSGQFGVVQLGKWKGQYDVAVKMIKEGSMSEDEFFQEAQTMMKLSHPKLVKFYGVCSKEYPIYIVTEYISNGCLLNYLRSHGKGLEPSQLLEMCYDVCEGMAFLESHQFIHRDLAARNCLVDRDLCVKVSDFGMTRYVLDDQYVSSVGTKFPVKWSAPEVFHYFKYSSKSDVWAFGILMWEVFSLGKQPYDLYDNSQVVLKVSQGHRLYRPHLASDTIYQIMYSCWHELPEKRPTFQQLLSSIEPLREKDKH
Protocol: BMX enzyme activity is measured using the IMAP (immobilized metal ion affinity-based fluorescence polarization) assay as outlined below.
(§1) The dilutions in DMSO are then diluted 50-fold in KR-buffer.
(§2) Test compounds and BMX enzyme are pre-incubated 60 minutes at room temperature, before adding 5 μL/well of 200 nM Fluorescin labeled substrate peptide (Blk/Lyntide substrate #R7188, Molecular Devices) in KR-buffer. Final peptide substrate concentration in assay is 50 nM. […] IC50 values are determined by curve fitting of the experimental results using Activity Base.

BTK = BTK (Homo sapiens (Human), UniProt Q06187); experiment: BTK enzyme activity, IMAP assay; format: biochemical; conditions: 60 min pre-incubation; 5 μM ATP
Chain of BTK (Q06187 whole entry): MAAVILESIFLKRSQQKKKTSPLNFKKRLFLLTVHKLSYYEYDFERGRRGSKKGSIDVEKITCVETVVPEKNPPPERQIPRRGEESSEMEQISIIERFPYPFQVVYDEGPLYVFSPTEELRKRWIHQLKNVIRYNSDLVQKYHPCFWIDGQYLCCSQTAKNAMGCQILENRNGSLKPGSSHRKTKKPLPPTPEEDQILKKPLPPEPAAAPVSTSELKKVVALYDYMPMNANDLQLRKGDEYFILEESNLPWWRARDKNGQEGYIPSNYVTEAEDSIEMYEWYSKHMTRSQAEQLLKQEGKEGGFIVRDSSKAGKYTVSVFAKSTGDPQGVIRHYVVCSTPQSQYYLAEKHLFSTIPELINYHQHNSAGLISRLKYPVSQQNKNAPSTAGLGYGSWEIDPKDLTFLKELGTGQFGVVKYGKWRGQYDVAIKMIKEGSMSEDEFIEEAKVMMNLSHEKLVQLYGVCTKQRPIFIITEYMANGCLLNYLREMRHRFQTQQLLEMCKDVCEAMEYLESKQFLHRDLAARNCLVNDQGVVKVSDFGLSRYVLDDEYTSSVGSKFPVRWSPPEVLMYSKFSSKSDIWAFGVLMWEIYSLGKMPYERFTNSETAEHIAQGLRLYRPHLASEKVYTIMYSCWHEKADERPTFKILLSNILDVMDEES
Protocol: BTK enzyme activity is measured using the IMAP (immobilized metal ion affinity-based fluorescence polarization) assay as outlined below.
BTK enzyme (His-BTK (Millipore catalog #14-552)), is diluted to 0.4 U/mL in KR buffer (10 mM Tris-HCl, 10 mM MgCl2, 0.01% Tween-20, 0.05% NaN3, 1 mM DTT, 2 mM MnCl2, pH 7.2).
(§3) Serial dilutions log 10 from 2 mM to 63.2 nM of test compounds are made in 100% DMSO. The dilutions in DMSO are then diluted 50-fold in KR-buffer. Final compound concentration range in the assay ranged from 10 μM to 0.316 nM.
The assay is performed as follows: 5 μL/well of test compound in KR buffer (final DMSO concentration in the assay is 1%) is mixed with 5 µl/well of 0.4 U/mL BTK enzyme (final concentration in the assay is 0.1 U/mL). Test compounds and BTK enzyme are pre-incubated 60 minutes at room temperature, before adding 5 μL/well of 200 nM Fluorescin labeled substrate peptide (Blk/Lyntide substrate, e.g. #R7188/#R7233, Molecular Devices) in KR-buffer. Final peptide substrate concentration in assay is 50 nM. […] Following incubation for 2 hours at room temperature the enzyme reaction is stopped by adding 40 μL/well IMAP Progressive Binding Solution (according to suppliers (Molecular Devices) protocol using 75% 1× buffer A and 25% 1× buffer B with 1:600 Progressive Binding Solution). After 60 min incubation at room temperature in the dark the FP signal is read. Fluorescence at 535 nm is measured using parallel and perpendicular filters to determine differences in rotation due to binding of the phosphorylated substrate peptide to the beads. Values are calculated as percentage of the difference in readout (ΔmPi) of the controls with and without ATP. IC50 values are determined by curve fitting of the experimental results using Activity Base.

ITK = ITK (Homo sapiens (Human), UniProt Q08881); experiment: ITK enzyme activity, IMAP assay; format: biochemical; conditions: 60 min pre-incubation; 5 μM ATP
Chain of ITK (Q08881 whole entry): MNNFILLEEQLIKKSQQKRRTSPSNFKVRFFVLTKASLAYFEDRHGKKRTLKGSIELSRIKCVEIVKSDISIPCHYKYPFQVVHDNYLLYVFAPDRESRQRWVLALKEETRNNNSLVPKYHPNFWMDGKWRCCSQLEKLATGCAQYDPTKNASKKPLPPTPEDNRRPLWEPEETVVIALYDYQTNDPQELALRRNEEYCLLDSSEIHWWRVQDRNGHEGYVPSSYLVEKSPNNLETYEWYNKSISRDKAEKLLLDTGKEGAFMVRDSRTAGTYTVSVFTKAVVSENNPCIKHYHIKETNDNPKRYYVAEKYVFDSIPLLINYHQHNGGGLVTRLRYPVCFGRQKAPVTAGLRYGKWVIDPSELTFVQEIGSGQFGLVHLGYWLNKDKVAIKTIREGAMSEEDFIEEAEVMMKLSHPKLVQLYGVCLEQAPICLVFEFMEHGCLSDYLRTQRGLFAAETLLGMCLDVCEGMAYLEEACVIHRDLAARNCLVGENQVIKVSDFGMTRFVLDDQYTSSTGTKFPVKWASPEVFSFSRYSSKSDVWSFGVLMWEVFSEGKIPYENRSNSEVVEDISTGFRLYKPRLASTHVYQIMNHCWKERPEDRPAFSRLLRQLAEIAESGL
Protocol: ITK enzyme activity is measured using the IMAP (immobilized metal ion affinity-based fluorescence polarization) assay as outlined below.
ITK enzyme (Millipore #14-660M) is diluted to 0.2 U/mL in KR buffer (10 mM Tris-HCl, 10 mM MgCl2, 0.01% Tween-20, 0.1% NaN3, 1 mM DTT, 2 mM MnCl2, pH 7.5)
as §1
as §2, with “ITK” for “BMX”, “#R8124,” for “#R7188,”

Txk = Txk (Homo sapiens (Human), UniProt P42681); experiment: TXK enzyme activity, IMAP assay; format: biochemical; conditions: 60 min pre-incubation; 1 μM ATP
Chain of Txk (P42681 whole entry): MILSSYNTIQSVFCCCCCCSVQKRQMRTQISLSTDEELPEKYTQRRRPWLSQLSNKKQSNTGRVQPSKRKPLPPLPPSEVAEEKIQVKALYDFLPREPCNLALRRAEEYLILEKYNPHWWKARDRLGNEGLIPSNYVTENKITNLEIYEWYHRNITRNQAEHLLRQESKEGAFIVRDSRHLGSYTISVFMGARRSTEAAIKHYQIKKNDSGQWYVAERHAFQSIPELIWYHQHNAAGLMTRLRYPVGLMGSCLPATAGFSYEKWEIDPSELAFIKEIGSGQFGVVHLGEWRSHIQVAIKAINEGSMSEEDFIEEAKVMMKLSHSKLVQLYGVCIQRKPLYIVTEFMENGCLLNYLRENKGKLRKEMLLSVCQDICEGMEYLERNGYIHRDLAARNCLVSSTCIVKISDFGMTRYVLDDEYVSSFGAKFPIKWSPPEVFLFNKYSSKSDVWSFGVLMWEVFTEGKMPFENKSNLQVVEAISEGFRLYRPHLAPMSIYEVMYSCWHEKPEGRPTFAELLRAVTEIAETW
Protocol: TXK enzyme activity is measured using the IMAP (immobilized metal ion affinity-based fluorescence polarization) assay as outlined below.
TXK enzyme (Millipore #14-761), is diluted to 2.5 U/mL in KR buffer (10 mM Tris-HCl, 10 mM MgCl2, 0.01% Tween-20, 0.1% NaN3, 1 mM DTT, 2 mM MnCl2, pH 7.5).
as §3
The assay is performed as follows: 5 μL/well of test compound in KR buffer (final DMSO concentration in the assay is 1%) is mixed with 5 μL/well of 2.5 U/mL TXK enzyme (final concentration in the assay is 0.625 U/mL (4.4 nM)). Test compounds and TXK enzyme are pre-incubated 60 minutes at room temperature, before adding 5 μL/well of 200 nM Fluorescin labeled substrate peptide (Blk/Lyntide substrate #R7188, Molecular Devices) in KR-buffer. Final peptide substrate concentration in assay is 50 nM. […] Following incubation for 2 hours at room temperature the enzyme reaction is stopped by adding 40 μL/well IMAP Progressive Binding Solution (according to suppliers (Molecular Devices) protocol using 60% 1× buffer A and 40% 1× buffer B with 800× diluted beads (Progressive Binding System, Molecular Devices). After 60 min incubation at room temperature in the dark the FP signal is read. Fluorescence at 535 nm is measured using parallel and perpendicular filters to determine differences in rotation due to binding of the phosphorylated substrate peptide to the beads. Values are calculated as percentage of the difference in readout (ΔmPi) of the controls with and without ATP. IC50 values are determined by curve fitting of the experimental results using Activity Base.

Chain of EGFR WT (P00533 25-1210): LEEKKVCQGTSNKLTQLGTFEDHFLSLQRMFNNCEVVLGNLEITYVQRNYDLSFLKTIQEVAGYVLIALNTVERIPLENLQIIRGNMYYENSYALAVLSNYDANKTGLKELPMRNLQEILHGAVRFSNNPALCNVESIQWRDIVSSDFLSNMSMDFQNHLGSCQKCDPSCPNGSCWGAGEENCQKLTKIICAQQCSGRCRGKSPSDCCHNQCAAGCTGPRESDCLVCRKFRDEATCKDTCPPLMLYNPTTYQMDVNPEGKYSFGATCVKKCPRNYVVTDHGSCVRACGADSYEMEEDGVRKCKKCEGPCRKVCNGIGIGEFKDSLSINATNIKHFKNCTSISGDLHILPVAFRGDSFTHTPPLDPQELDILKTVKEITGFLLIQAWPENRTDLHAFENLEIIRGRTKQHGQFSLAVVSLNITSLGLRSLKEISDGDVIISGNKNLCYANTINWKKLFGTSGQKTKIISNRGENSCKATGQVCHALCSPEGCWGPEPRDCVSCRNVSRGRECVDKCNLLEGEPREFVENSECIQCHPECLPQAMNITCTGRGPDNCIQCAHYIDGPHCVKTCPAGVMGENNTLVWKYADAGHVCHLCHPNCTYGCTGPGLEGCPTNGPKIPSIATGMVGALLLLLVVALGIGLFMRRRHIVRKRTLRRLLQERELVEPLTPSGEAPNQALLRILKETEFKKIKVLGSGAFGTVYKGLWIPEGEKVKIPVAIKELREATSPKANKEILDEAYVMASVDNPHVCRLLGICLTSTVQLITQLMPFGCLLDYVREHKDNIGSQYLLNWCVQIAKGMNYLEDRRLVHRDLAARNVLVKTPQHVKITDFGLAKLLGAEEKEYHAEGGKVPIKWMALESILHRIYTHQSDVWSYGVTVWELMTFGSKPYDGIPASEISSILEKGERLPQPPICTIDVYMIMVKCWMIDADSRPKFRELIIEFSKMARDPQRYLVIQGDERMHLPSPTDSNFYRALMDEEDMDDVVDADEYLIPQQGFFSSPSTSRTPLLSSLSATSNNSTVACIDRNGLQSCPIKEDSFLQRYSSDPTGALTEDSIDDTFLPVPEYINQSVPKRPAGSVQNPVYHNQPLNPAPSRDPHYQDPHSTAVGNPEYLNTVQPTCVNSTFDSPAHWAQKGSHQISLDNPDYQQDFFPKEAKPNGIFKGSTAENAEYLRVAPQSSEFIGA

| Structure (SMILES) | IC50 (EGFR WT) [nM] | EC50 ([1]; Homo sapiens, PBMC) [nM] | IC50 (Bmx) [nM] | IC50 (BTK) [nM] | IC50 (ITK) [nM] | IC50 (Txk) [nM] | EC50 ([1]; PBMC) [nM] | EC50 [1] [nM] |
| --- | --- | --- | --- | --- | --- | --- | --- | --- |
| CC#CC(=O)N[C@@H](C)c1nc(-c2ccc(C(=O)Nc3ccccn3)c(OC)c2)c2c(N)nccn12 | > 1000 | 1.3 | 3.1 | 1.6 | > 1000 | 2 |  |  |
| CC#CC(=O)N(C)[C@@H](C)c1nc(-c2ccc(C(=O)Nc3ccccn3)c(OC)c2)c2c(N)nccn12 | > 1000 | 2.4 | 4.2 | 2 | > 1000 | 3 |  |  |
| CC#CC(=O)N1CCC[C@H]1c1nc(-c2ccc(C(=O)Nc3nccs3)c(OC)c2)c2c(N)nccn12 | > 1000 | 11 | 12 | 3.9 | > 1000 | 7.1 |  |  |
| CC#CC(=O)N1CCC[C@H]1c1nc(-c2ccc(C(=O)Nc3ccc(C)cn3)c(OC)c2)c2c(N)nccn12 | > 1000 | 5.2 | 11 | 6.7 | > 1000 | 11 |  |  |
| CC#CC(=O)N[C@@H](C)c1nc(-c2ccc(C(=O)Nc3ccc(C)cn3)cc2)c2c(N)nccn12 |  | 1 | 2.9 | 1.6 | 287 | 2.1 |  |  |
| CC#CC(=O)N[C@@H](C)c1nc(-c2ccc(C(=O)Nc3ccc(C)cn3)c(OC)c2)c2c(N)nccn12 | > 1000 | 1.3 | 2.4 | 1.9 | > 1000 | 1.7 |  |  |
| CC#CC(=O)N(C)[C@@H](C)c1nc(-c2ccc(C(=O)Nc3ccc(C)cn3)cc2)c2c(N)nccn12 | 354 | 1.7 | 4.5 | 1.8 | 254 | 3.9 |  |  |
| CC#CC(=O)N(C)[C@@H](C)c1nc(-c2ccc(C(=O)Nc3ccccn3)cc2)c2c(N)nccn12 | 123 | 1.9 | 7.5 | 2.1 | > 1000 | 3.7 |  |  |
| COC/C=C/C(=O)N(C)[C@@H](C)c1nc(-c2ccc(C(=O)Nc3ccc(C)cn3)cc2)c2c(N)nccn12 |  | 3.5 | 15 | 11 |  | 14 |  |  |
| COC/C=C/C(=O)N[C@@H](C)c1nc(-c2ccc(C(=O)Nc3ccc(C)cn3)cc2)c2c(N)nccn12 | 360 | 4.2 | 2.9 | 2.4 | 478 | 1.5 |  |  |
| CC#CC(=O)N[C@@H](C)c1nc(-c2ccc(C(=O)Nc3cc(C(F)(F)F)ccn3)cc2)c2c(N)nccn12 | 327 | 0.7 | 1.9 | 1.8 | 119 | 1.8 |  |  |
| CC#CC(=O)N[C@@H](C)c1nc(-c2ccc(C(=O)Nc3cc(C(F)(F)F)ccn3)c(OC)c2)c2c(N)nccn12 | > 1000 | 1.4 | 3.5 | 2.2 | > 1000 | 4.7 |  |  |
| COC/C=C/C(=O)N[C@@H](C)c1nc(-c2ccc(C(=O)Nc3ccc(C)cn3)c(OC)c2)c2c(N)nccn12 | > 1000 | 1.9 | 3 | 3.9 | > 1000 | 2.7 |  |  |
| CC#CC(=O)N(C)[C@@H](C)c1nc(-c2ccc(C(=O)Nc3cc(C(F)(F)F)ccn3)c(OC)c2)c2c(N)nccn12 | > 1000 | 2.7 | 7.9 | 3.5 | > 1000 | 13 |  |  |
| CC#CC(=O)N1CCC[C@H]1c1nc(-c2ccc(C(=O)Nc3cscn3)cc2)c2c(N)nccn12 |  |  |  | 6.3 | > 1000 | 33.5 | 9.5 |  |
| CC#CC(=O)N(C)[C@@H](C)c1nc(-c2ccc(C(=O)Nc3ccc(C)cn3)c(OC)c2)c2c(N)nccn12 [drawing 83] |  | 3.7 | 16 | 4.2 |  | 12 |  |  |
| CC#CC(=O)N(C)[C@@H](C)c1nc(-c2ccc(C(=O)Nc3ccc(C)cn3)c(OC)c2)c2c(N)nccn12 [drawing 89] |  |  | 6.8 | 5.1 |  | 5.1 |  | 5.1 |

Source: patent publication US11110088B2, “Imidazopyrazine inhibitors of Bruton's tyrosine kinase” (Acerta Pharma B.V., priority 2015, dated 2021)
